These results are taken from US9538763B2, “Cleaning, disinfecting and microbicidal compositions” (priority 2009, dated 2017).

Holding throughout (format): cell-based
In one test the test system is Staphylococcus aureus. Briefly: modified detergent and germicidal sanitizer test of the A.O.A.C. As to conditions: 50 ppm hypochlorite control. The protocol:
(§1) The microbicidal efficacy of the microbicidal disinfecting compositions of Examples 1-3 (compositions A-C) were evaluated with 50 ppm of hypochlorite as a control against Staphylococcus aureus and Escherichia coli by the modified detergent and germicidal sanitizer test of the A.O.A.C. (Lopes, 1986).

The next test has as its system Escherichia coli. The test is described as above. The note with it: 50 ppm hypochlorite control. The protocol:
as §1

The test system of another test is Salmonella. Briefly: treatment of Salmonella-contaminated tomatoes. The note with it: 150 ppm. How it is done:
The microbicidal efficacy of the microbicidal disinfecting composition of Example 1 (composition A) was further tested and proven effective against Salmonella on contaminated tomatoes. When Salmonella-contaminated tomatoes were treated with 0.1% solution of composition A, the viable bacterial population was reduced by 2.31 log10 CFU as compared with 2.11 log10 CFU with 150 ppm of hypochlorite.

As for `OCl` [Hypochlorite, hypochlorite], in the test on Staphylococcus aureus, the “% Kill Staph. aureus” value is given as above 99.999%. Also, the “% Kill E. coli” value in the test with Escherichia coli was above 99.999%. Moreover, the “reduction of viable bacterial population” value in the test with Salmonella turned out to be 2.11 log10 CFU.
